One data set concerns the target human MALT-1 protein (Homo sapiens (Human), UniProt Q9UDY8). The experiment in a line: MALT-1 Biochemical Assay (Quench-FRET enzyme assay). The note with it: human MALT-1 6 nM, substrate 2 μM, 40 min preincubation. A digest of the protocol:
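Human MALT-1 (6 nM) preincubated 40 min at room temperature with compound in pH 7.5 HEPES buffer containing 0.8 M sodium citrate and 2 mM DTT. Then 2 μM quenched TAMRA/QSY7 peptide substrate added for 60 min. Cleavage read by fluorescence (Ex 535/Em 590); EC50 is half-maximal inhibition of protease activity.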

A further data set concerns OCI-LY3 IL6. The experiment in a line: MALT-1 Cell IL-6 AlphaLISA Assay. The following applies: Homo sapiens; OCI-LY3 cells, 48 hours incubation; read-out: OCI-LY3 IL6 48 hour Inhibition EC50. The class given is cell-based. The essentials: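 MALT-1-dependent ABC-DLBCL OCI-LY3 cells were seeded at 50,000 cells/mL onto compound (30 μM to 1.5 nM) and incubated 48 hours at 37° C. Secreted human IL-6 in the medium was measured by AlphaLISA with acceptor beads, biotinylated anti-IL-6 antibody and streptavidin donor beads.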
For orientation: Alpha assays give light when donor and acceptor beads are brought close together.

Another data set concerns male Sprague-Dawley rats. The experiment in a line: Cardiovascular Assay in anesthetized rats. Type of data set: in vivo. The note with it: rat; for HR (%) / MAP (%) / dP/dt@50 (%): change from vehicle; for Drug (μg/mL SEM): plasma at end of infusion. How it is done: The following cardiovascular assay was conducted using male Sprague-Dawley rats that were anesthetized with Inactin (thiobutabarbital), instrumented (catheterized both femoral artery and vein; catheterize left ventricular) and allowed to stabilize. Following a 30-minute baseline period, each compound was infused at low, medium, and high doses/30 minutes. Plasma samples were taken at the end of each dose infusion. If, at any point, the mean arterial pressure (MAP) of an animal decreased below 70 mmHg, the infusion was immediately stopped, a final blood sample was taken, and hemodynamic data for that animal was removed from the group average for all subsequent time points. A 15% change from vehicle for MAP or heart rate (HR), respectively, is considered biologically relevant. A 20% change from vehicle for dP/dt@50 is considered biologically relevant.

The subject of the next data set is CYP 3A4 mRNA. The experiment in a line: CYP3A4 Induction Assay (qPCR, human hepatocytes). The class given is in vitro ADME. The following applies: 10 μM compound, relative to rifampicin 10 μM. A digest of the protocol:
(§1)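 Cryopreserved human hepatocytes (60,000 cells/well), overlaid with Geltrex, were dosed at 10 μM final, with omeprazole, rifampicin and probenecid as controls. RNA was isolated on day 3. CYP3A4 mRNA was measured by TaqMan RT-qPCR with GAPDH as the reference gene.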

A further data set deals with CYP3A4 mRNA. The experiment in a line: CYP3A4 Induction Assay (qPCR, human hepatocytes). Type of data set: in vitro ADME. The note with it: cryopreserved human hepatocytes (plated), 10 μM compound, mRNA fold over vehicle (0.1% DMSO). A digest of the protocol: as §1
For orientation: Real-time PCR tracks product formation cycle by cycle.

Data on twelve compounds can be found in US20230312601A1, “THIAZOLO[5,4-B]PYRIDINE MALT-1 INHIBITORS” (AbbVie Inc., priority 2022, published 2023).

What is called EC50 is the midpoint of the concentration-response curve. As usually defined, the fold induction is the signal under treatment as a multiple of the control signal.

Chain of human MALT-1 protein (Q9UDY8 whole entry): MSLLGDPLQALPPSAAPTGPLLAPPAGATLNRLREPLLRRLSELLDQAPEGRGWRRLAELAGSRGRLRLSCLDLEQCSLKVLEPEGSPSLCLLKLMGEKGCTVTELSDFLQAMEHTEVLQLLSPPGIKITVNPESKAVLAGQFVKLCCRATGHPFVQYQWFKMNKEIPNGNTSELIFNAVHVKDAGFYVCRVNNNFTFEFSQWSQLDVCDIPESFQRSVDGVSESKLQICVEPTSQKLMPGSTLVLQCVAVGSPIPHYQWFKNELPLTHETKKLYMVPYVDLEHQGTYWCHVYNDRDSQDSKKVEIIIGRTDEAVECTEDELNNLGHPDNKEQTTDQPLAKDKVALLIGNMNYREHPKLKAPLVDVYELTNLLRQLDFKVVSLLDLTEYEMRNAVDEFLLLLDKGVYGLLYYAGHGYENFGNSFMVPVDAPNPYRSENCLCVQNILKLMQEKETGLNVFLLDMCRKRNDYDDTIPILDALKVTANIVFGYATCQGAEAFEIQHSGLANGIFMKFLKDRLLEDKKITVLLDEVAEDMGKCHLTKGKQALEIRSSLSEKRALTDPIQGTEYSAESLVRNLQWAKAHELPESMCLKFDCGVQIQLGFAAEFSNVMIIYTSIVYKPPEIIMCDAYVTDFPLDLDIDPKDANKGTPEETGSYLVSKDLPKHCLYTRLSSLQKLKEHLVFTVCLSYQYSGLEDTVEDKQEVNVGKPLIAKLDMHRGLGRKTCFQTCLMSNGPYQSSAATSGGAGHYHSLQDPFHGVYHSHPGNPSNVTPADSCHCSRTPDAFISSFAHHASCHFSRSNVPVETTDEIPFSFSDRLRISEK

On human MALT-1 protein, `CO[C@H](c1c(Nc2ccc([C@H](N(C)C(=O)C3CCS(=O)(=O)CC3)C(F)(F)F)cc2)cnc2sc(C)nc12)C(F)F` [Example 3, N-{(1S)-1-[4-({7-[(1R)-2,2-difluoro-l-methoxyethyl]-2-methyl[1,3]thiazolo[5,4-b]pyridin-6-yl}amino)phenyl]-2,2,2-trifluoroethyl} -N-methyl-1,1-dioxo-1λ^6-thiane-4-carboxamide] showed an EC50 of 0.11 µM. Besides, the EC50 in the data set on OCI-LY3 IL6 was 0.14 µM. In addition, in the data set on male Sprague-Dawley rats (dose 3 mg/kg), the “HR (%)” value is recorded as −1%, the “MAP (%)” value amounted to 1%, the “dP/dt@50 (%)” value is on record as 0% and the “Drug (μg/mL SEM)” value stood at 2.18 ± 0.10 µg/mL. Besides, in the data set with male Sprague-Dawley rats (dose 10 mg/kg), the “HR (%)” value was −3%, the “MAP (%)” value is recorded as 0%, the “dP/dt@50 (%)” value was determined as 3% and the “Drug (μg/mL SEM)” value was 8.34 ± 0.55 µg/mL. In the data set with male Sprague-Dawley rats (dose 30 mg/kg), the “HR (%)” value is given as −12%, the “MAP (%)” value is reported as −13%, the “dP/dt@50 (%)” value was −3% and the “Drug (μg/mL SEM)” value is 22.87 ± 2.67 µg/mL. The “CYP3A4 % of positive control (%)” value in the data set on CYP 3A4 mRNA was “(1.75) %”. Moreover, the fold induction at 1 day, 10 µM in the data set on CYP3A4 mRNA came to 1.12.

On human MALT-1 protein, `CO[C@@H](C)c1c(Nc2ccc([C@H](N(C)C(=O)C3CCS(=O)(=O)CC3)C(F)(F)F)cc2)cnc2sc(C)nc12` [Example 1, N-methyl-1,1-dioxo-N-{(1S)-2,2,2-trifluoro-1-[4-({7-[(1S)-1-methoxyethyl]-2-methyl[1,3]thiazolo[5,4-b]pyridin-6-yl}amino)phenyl]ethyl}-1λ^6-thiane-4-carboxamide] registered an EC50 of 0.091 µM. The EC50 with OCI-LY3 IL6 came to 0.2 µM. In the data set with male Sprague-Dawley rats (dose 3 mg/kg), the “HR (%)” value was −4%, the “MAP (%)” value is −5%, the “dP/dt@50 (%)” value was found to be 5% and the “Drug (μg/mL SEM)” value was determined as 2.32 ± 0.12 µg/mL. In addition, in the data set with male Sprague-Dawley rats (dose 10 mg/kg), the “HR (%)” value is on record as −8%, the “MAP (%)” value is −8%, the “dP/dt@50 (%)” value worked out at 12% and the “Drug (μg/mL SEM)” value was determined as 9.36 ± 0.41 µg/mL. For the same compound, in the data set on male Sprague-Dawley rats (dose 30 mg/kg), the “HR (%)” value is −17%, the “MAP (%)” value is −16%, the “dP/dt@50 (%)” value is 11% and the “Drug (μg/mL SEM)” value is 24.00 ± 1.63 µg/mL. Besides, the “CYP3A4 % of positive control (%)” value in the data set with CYP 3A4 mRNA is given as “(5.46) %”. The fold induction at 1 day, 10 µM in the data set on CYP3A4 mRNA is 1.45.

Turning to `CO[C@H](c1c(Nc2ccc([C@@H](C(F)F)N(C)C(=O)C3CCS(=O)(=O)CC3)cc2)cnc2sc(C)nc12)C(F)F` [Example 6, N-{(1S)-1-[4-({7-[(1R)-2,2-difluoro-l-methoxyethyl]-2-methyl[1,3]thiazolo[5,4-b]pyridin-6-y1}amino)phenyl]-2,2-difluoroethyl}-N-methyl-1,1-dioxo-1λ^6-thiane-4-carboxamide], the concentration for a half-maximal effect (EC50) at human MALT-1 protein amounted to 0.146 µM; with OCI-LY3 IL6 it was 0.21 µM. For the same compound, the “CYP3A4 % of positive control (%)” value in the data set with CYP 3A4 mRNA is given as “(5.46) %”. In addition, the fold induction at 1 day, 10 µM in the data set on CYP3A4 mRNA came to 1.4.

For the compound `CO[C@@H](C)c1c(Nc2ccc([C@H](N(C)C(=O)C3CCN(C(=O)[C@@H](O)CO)CC3)C(F)(F)F)cc2)cnc2sc(C)nc12` [Example 30, 1-[(25)-2,3-dihydroxypropanoyl]-N-methyl-N-{(1S)-2,2,2-trifluoro-1-[4-({7-[(1S)-1-methoxyethyl]-2-methyl[1,3]thiazolo[5,4-b]pyridin-6-yl}amino)phenyl]ethyl}piperidine-4-carboxamide], the EC50 stood at 0.082 µM on human MALT-1 protein and 0.71 µM in the data set with OCI-LY3 IL6. The “CYP3A4 % of positive control (%)” value in the data set on CYP 3A4 mRNA is on record as “(5) %”. Further, the fold induction at 1 day, 10 µM with CYP3A4 mRNA was determined as 1.49.

As for `CO[C@@H](C)c1c(Nc2ccc([C@H](N(C)C(=O)C3CCN(C(=O)C(O)CO)CC3)C(F)(F)F)cc2)cnc2sc(C)nc12` (stereo partly drawn) [Example 24, 1-(2,3-dihydroxypropanoyl)-N-methyl-N-{(1S)-2,2,2-trifluoro-1-[4-({7-[(1S)-1-methoxyethyl]-2-methyl[1,3]thiazolo[5,4-b]pyridin-6-yl}amino)phenyl]ethyl}piperidine-4-carboxamide], the EC50 at human MALT-1 protein turned out to be 0.979 µM; in the data set on OCI-LY3 IL6 it was 12.2 µM. The “CYP3A4 % of positive control (%)” value with CYP 3A4 mRNA is recorded as “(7.62) %”. In addition, the fold induction at 1 day, 10 µM with CYP3A4 mRNA was determined as 1.49.

In the case of `CO[C@@H](C)c1c(Nc2ccc([C@H](N(C)C(=O)C3CCS(=O)(=O)CC3)C(F)(F)F)cc2F)cnc2sc(C)nc12` (single isomer, unassigned) [Example 10], the EC50 was 0.198 µM at human MALT-1 protein and 0.23 µM in the data set on OCI-LY3 IL6. Also, the “CYP3A4 % of positive control (%)” value in the data set with CYP 3A4 mRNA is “(84.8) %”. In addition, in the data set on CYP3A4 mRNA, the fold induction at 1 day, 10 µM was 8.24.

For the compound `CCN(C(=O)C1CCS(=O)(=O)CC1)[C@@H](c1ccc(Nc2cnc3sc(C)nc3c2[C@H](C)OC)cc1)C(F)(F)F` [Example 7, N-ethyl-1,1-dioxo-N-{(1S)-2,2,2-trifluoro-1-[4-({7-[(1S)-1-methoxyethyl]-2-methyl[1,3]thiazolo [5,4-b]pyridin-6-yl}amino)phenyl]ethyl}-1λ^6-thiane-4-carboxamide], the EC50 at human MALT-1 protein was found to be 0.135 µM; with OCI-LY3 IL6, 0.14 µM. Besides, the “CYP3A4 % of positive control (%)” value with CYP 3A4 mRNA was “(12.7) %”. In addition, the fold induction at 1 day, 10 µM in the data set on CYP3A4 mRNA is 1.93.

`CO[C@@H](C)c1c(Nc2ccc([C@@H](C(F)F)N(C)C(=O)C3CCS(=O)(=O)CC3)cc2)cnc2sc(C)nc12` [Example 4, N-{(1S)-2,2-difluoro-1-[4-({7-[(1S)-1-methoxyethyl]-2-methyl[1,3]thiazolo[5,4-b]pyridin-6-y1}amino)phenyl]ethyl} -N-methyl-1,1-dioxo-1λ^6-thiane-4-carboxamide]: the EC50 at human MALT-1 protein is 0.158 µM; with OCI-LY3 IL6, 1.33 µM. Also, the “CYP3A4 % of positive control (%)” value with CYP 3A4 mRNA is on record as “(16.1) %”. The fold induction at 1 day, 10 µM in the data set on CYP3A4 mRNA was 1.98.

For `CO[C@@H](C)c1c(Nc2ccc([C@H](N(C)C(=O)C3CCN(C(=O)C(C)(C)O)CC3)C(F)(F)F)cc2)cnc2sc(C)nc12` [Example 23, 1-(2-hydroxy-2-methylpropanoyl)-N-methyl-N-{(1S)-2,2,2-trifluoro-1-[4-({7-[(1S)-1-methoxyethyl]-2-methyl[1,3]thiazolo[5,4-b]pyridin-6-yl}amino)phenyl]ethyl}piperidine-4-carboxamide], the 50% effective concentration (EC50) is 0.139 µM on human MALT-1 protein and 0.21 µM in the data set with OCI-LY3 IL6. Also, the “CYP3A4 % of positive control (%)” value in the data set on CYP 3A4 mRNA is on record as “(−4.35) %”. In addition, the fold induction at 1 day, 10 µM in the data set on CYP3A4 mRNA was determined as 0.677.

On to `CO[C@H](C)c1c(Nc2ccc([C@H](N(C)C(=O)C3CCS(=O)(=O)CC3)C(F)(F)F)cc2)cnc2sc(C)nc12` [Example 8, N-methyl-1,1-dioxo-N-{(1S)-2,2,2-trifluoro-1-[4-({7-[(1R)-1-methoxyethyl]-2-methyl[1,3]thiazolo [5,4-b]pyridin-6-yl}amino)phenyl]ethyl}-1λ^6-thiane-4-carboxamide], for which the EC50 at human MALT-1 protein came to 0.099 µM; in the data set with OCI-LY3 IL6 it was 0.07 µM. Further, the “CYP3A4 % of positive control (%)” value in the data set with CYP 3A4 mRNA is reported as “(9.23) %”. For the same compound, the fold induction at 1 day, 10 µM in the data set on CYP3A4 mRNA came out at 1.53.

On to `CO[C@@H](C)c1c(Nc2ccc([C@H](N(C)C(=O)C3CCN(C(=O)CCO)CC3)C(F)(F)F)cc2)cnc2sc(C)nc12` [Example 22, 1-(3-hydroxypropanoyl)-N-methyl-N-{(1S)-2,2,2-trifluoro-1-[4-({7-[(1S)-1-methoxyethyl]-2-methyl[1,3]thiazolo[5,4-b]pyridin-6-yl}amino)phenyl]ethyl}piperidine-4-carboxamide], for which the values for the EC50 at human MALT-1 protein and with OCI-LY3 IL6 were 0.228 µM and 0.38 µM, respectively. Further, the “CYP3A4 % of positive control (%)” value in the data set with CYP 3A4 mRNA is “(1.16) %”. Further, the fold induction at 1 day, 10 µM in the data set on CYP3A4 mRNA is 1.09.

`CO[C@@H](C)c1c(Nc2c(F)cc([C@H](N(C)C(=O)C3CCS(=O)(=O)CC3)C(F)(F)F)cc2F)cnc2sc(C)nc12` [Example 9, N-{(1S)-1-[3,5-difluoro-4-({7-[(1S)-1-methoxyethyl]-2-methyl[1,3]thiazolo[5,4-b]pyridin-6-yl}amino)phenyl]-2,2,2-trifluoroethyl}-N-methyl-1,1-dioxo-1λ^6-thiane-4-carboxamide]: the EC50 on human MALT-1 protein was 0.102 µM; in the data set with OCI-LY3 IL6, 0.14 µM. The “CYP3A4 % of positive control (%)” value with CYP 3A4 mRNA is on record as “(−5.95) %”. Moreover, in the data set with CYP3A4 mRNA, the fold induction at 1 day, 10 µM came to 0.548.
